Results reported in PubChem BioAssay (NCI).
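96-well plates; 48 h exposure; 5 concentrations. Endpoints by linear interpolation between flanking doses. Not reached: highest tested concentration assigned. GI50 is the concentration that inhibits growth by half. TGI is the concentration that stops growth completely.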

Tests used:
Assay in all cases: DTP human tumour cell line panel, 48 h
[1] = test system: OVCAR-3 ovarian
[2] = test system: T-47D breast
[3] = test system: SW-620 colon
[4] = test system: IGROV1 ovarian
[5] = test system: HOP-92 NSCLC
[6] = test system: SF-295 CNS
[7] = test system: U251 CNS
[8] = test system: NCI-H226 lung
[9] = test system: MDA-MB-435
[10] = test system: M14 melanoma
[11] = test system: SK-MEL-5 melanoma
[12] = test system: UACC-257 melanoma
[13] = test system: SR leukemia
[14] = test system: A549 NSCLC
[15] = test system: MDA-MB-468 breast
[16] = test system: MCF7 breast
[17] = test system: SK-MEL-28 melanoma
[18] = test system: K-562 leukemia
[19] = test system: HT29 colon
[20] = test system: SN12C renal
[21] = test system: SK-OV-3 ovarian
[22] = test system: SNB-75 CNS
[23] = test system: NCI-H23 lung
[24] = test system: LOX IMVI melanoma
[25] = test system: MOLT-4 leukemia
[26] = test system: TK-10 renal
[27] = test system: SF-539 CNS
[28] = test system: MDA-MB-231 breast
[29] = test system: HCT-15 colon
[30] = test system: NCI-H460 lung
[31] = test system: NCI-H522 lung
[32] = test system: DU-145 prostate
[33] = test system: SNB-19 CNS
[34] = test system: CAKI-1 renal
[35] = test system: RPMI-8226 leukemia
[36] = test system: SF-268 CNS
[37] = test system: KM12 colon
[38] = test system: BT-549 breast
[39] = test system: 786-0 renal
[40] = test system: OVCAR-8 ovarian
[41] = test system: HL-60(TB) leukemia
[42] = test system: OVCAR-4 ovarian
[43] = test system: HOP-62 NSCLC
[44] = test system: HCT-116 colon
[45] = test system: ACHN renal
[46] = test system: COLO 205 colon
[47] = test system: RXF 393 renal
[48] = test system: NCI/ADR-RES ovarian
[49] = test system: A498 renal
[50] = test system: CCRF-CEM leukemia
[51] = test system: HCC-2998 colon
[52] = test system: EKVX NSCLC
[53] = test system: OVCAR-5 ovarian
[54] = test system: SK-MEL-2 melanoma
[55] = test system: HS 578T breast
[56] = test system: PC-3 prostate
[57] = test system: UACC-62 melanoma
[58] = test system: UO-31 renal

O=C(N/N=C/c1occc1Br)c1[nH]c2ccc(Br)cc2c1-c1ccccc1
GI50 [1]: 0.351 µM
TGI [1]: 11.8 µM
GI50 [2]: 0.484 µM
TGI [2]: 19.7 µM
GI50 [3]: 0.443 µM
TGI [3]: 14.3 µM
GI50 [4]: 1.23 µM
TGI [4]: 13.7 µM
GI50 [5]: 11.2 µM
TGI [5]: 24.7 µM
GI50 [6]: 0.359 µM
TGI [6]: 13.5 µM
GI50 [7]: 3.22 µM
TGI [7]: 16.8 µM
GI50 [8]: 2.51 µM
TGI [8]: 16.6 µM
GI50 [9]: 0.249 µM
TGI [9]: 0.875 µM
GI50 [10]: 0.669 µM
TGI [10]: 15.8 µM
GI50 [11]: 0.677 µM
TGI [11]: 6.21 µM
GI50 [12]: 12.5 µM
TGI [12]: 28.8 µM
GI50 [13]: 0.459 µM
TGI [13]: 30 µM
GI50 [14]: 1.95 µM
TGI [14]: 21.9 µM
GI50 [15]: 0.383 µM
TGI [15]: 16.9 µM
GI50 [16]: 0.323 µM
TGI [16]: 11.9 µM
GI50 [17]: 5.05 µM
TGI [17]: 20.9 µM
GI50 [18]: 0.384 µM
TGI [18]: > 100 µM
GI50 [19]: 0.456 µM
TGI [19]: 2.68 µM
GI50 [20]: 1.51 µM
TGI [20]: 12.5 µM
GI50 [21]: 1.5 µM
TGI [21]: 18.1 µM
GI50 [22]: 0.832 µM
TGI [22]: 14.2 µM
GI50 [23]: 2.05 µM
TGI [23]: 13.2 µM
GI50 [24]: 0.663 µM
TGI [24]: 12.7 µM
GI50 [25]: 1.45 µM
TGI [25]: 12.8 µM
GI50 [26]: 7.68 µM
TGI [26]: 26.5 µM
GI50 [27]: 1.16 µM
TGI [27]: 4.36 µM
GI50 [28]: 1.1 µM
TGI [28]: 14.6 µM
GI50 [29]: 0.516 µM
TGI [29]: 11.7 µM
GI50 [30]: 0.756 µM
TGI [30]: 10.9 µM
GI50 [31]: 0.183 µM
TGI [31]: 0.5 µM
GI50 [32]: 2.71 µM
TGI [32]: 13.1 µM
GI50 [33]: 2.85 µM
TGI [33]: 19.3 µM
GI50 [34]: 0.698 µM
TGI [34]: 17.1 µM
GI50 [35]: 2.44 µM
TGI [35]: 20.5 µM
GI50 [36]: 1.74 µM
TGI [36]: 16.2 µM
GI50 [37]: 1.26 µM
TGI [37]: 14.1 µM
GI50 [38]: 0.743 µM
TGI [38]: 12.9 µM
GI50 [39]: 0.677 µM
TGI [39]: 16.7 µM
GI50 [40]: 2.3 µM
TGI [40]: 11.3 µM
GI50 [41]: 0.344 µM
TGI [41]: 2.02 µM
GI50 [42]: 7.1 µM
TGI [42]: 22 µM
GI50 [43]: 0.668 µM
TGI [43]: 18.1 µM
GI50 [44]: 0.557 µM
TGI [44]: 12.6 µM
GI50 [45]: 0.952 µM
TGI [45]: 16.2 µM
GI50 [46]: 0.561 µM
TGI [46]: 3.97 µM
GI50 [47]: 2.68 µM
TGI [47]: 22.2 µM
GI50 [48]: 0.348 µM
TGI [48]: 3.24 µM
GI50 [49]: 14.8 µM
TGI [49]: 28.8 µM
GI50 [50]: 0.512 µM
TGI [50]: 11 µM
GI50 [51]: 1.79 µM
TGI [51]: 13.7 µM
GI50 [52]: 1.93 µM
TGI [52]: 17.3 µM
GI50 [53]: 2.79 µM
TGI [53]: 13.6 µM
GI50 [54]: 0.675 µM
TGI [54]: 16.9 µM
GI50 [55]: 0.759 µM
TGI [55]: 18.4 µM
GI50 [56]: 0.941 µM
TGI [56]: 14.9 µM
GI50 [57]: 0.384 µM
TGI [57]: 16.7 µM
GI50 [58]: 0.746 µM
TGI [58]: 21.1 µM
